According to ChEMBL document CHEMBL5053532, “Bradykinin-Potentiating Peptide-Paclitaxel Conjugate Directed at Ectopically Expressed Angiotensin-Converting Enzyme in Triple-Negative Breast Cancer” (J Med Chem, 2021):
Activity calls are given as the source filed them. The calls are words filed in the database; no cut-off is given here. Where a SMILES comes first, the peptide text is derived from it. The star is where a group is joined. Paclitaxel(2'-O-succinyl) = CC(=O)O[C@H]1C(=O)[C@@]2(C)[C@H]([C@H](OC(=O)c3ccccc3)[C@]3(O)C[C@H](OC(=O)[C@H](OC(=O)CCC(=O)*)[C@@H](NC(=O)c4ccccc4)c4ccccc4)C(C)=C1C3(C)C)[C@]1(OC(C)=O)CO[C@@H]1C[C@@H]2O

What was measured:
[1] = target: Angiotensin-converting enzyme (Homo sapiens, UniProt P12821); assay: Binding affinity to human recombinant ACE protein assessed as dissociation constant incubated for 15 mins by […] binding analysis; conditions: read-out: Kd
Sequence of Angiotensin-converting enzyme (P12821 whole entry): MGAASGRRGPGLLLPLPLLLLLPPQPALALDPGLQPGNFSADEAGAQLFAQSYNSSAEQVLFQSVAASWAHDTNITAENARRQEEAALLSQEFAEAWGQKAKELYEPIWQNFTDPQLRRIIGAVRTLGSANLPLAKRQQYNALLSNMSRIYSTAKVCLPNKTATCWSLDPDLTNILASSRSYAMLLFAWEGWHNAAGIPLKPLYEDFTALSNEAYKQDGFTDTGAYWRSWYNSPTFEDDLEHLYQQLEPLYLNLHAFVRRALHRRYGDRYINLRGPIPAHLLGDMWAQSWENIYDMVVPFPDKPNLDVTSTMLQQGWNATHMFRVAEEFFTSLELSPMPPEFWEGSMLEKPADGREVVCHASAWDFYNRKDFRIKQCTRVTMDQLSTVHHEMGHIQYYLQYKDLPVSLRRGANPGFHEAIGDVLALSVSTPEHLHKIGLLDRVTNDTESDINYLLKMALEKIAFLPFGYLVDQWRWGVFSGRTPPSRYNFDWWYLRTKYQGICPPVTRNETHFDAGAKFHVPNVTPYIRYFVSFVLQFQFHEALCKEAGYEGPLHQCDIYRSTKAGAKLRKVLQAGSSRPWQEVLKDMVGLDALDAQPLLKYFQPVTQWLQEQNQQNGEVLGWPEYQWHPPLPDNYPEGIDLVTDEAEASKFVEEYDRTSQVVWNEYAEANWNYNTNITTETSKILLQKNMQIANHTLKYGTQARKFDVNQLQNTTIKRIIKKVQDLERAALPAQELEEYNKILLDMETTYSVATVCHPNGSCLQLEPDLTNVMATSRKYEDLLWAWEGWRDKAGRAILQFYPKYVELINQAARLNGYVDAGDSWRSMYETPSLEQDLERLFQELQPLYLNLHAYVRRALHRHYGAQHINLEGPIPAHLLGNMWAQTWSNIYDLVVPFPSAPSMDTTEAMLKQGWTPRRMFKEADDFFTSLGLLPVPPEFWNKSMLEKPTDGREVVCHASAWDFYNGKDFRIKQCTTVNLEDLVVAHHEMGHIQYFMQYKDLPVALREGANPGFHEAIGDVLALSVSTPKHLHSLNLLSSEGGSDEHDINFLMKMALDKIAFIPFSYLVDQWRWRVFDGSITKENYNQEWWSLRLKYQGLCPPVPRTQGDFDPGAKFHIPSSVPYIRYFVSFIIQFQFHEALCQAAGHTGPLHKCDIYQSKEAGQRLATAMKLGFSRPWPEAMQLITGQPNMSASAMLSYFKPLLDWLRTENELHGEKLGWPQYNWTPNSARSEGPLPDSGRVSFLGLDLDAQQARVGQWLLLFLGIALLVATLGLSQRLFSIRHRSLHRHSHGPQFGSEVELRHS

[2] = Stability of the compound in rat plasma assessed as drug residual at 10 uM measured after 48 hrs by LC/MS analysis; format: ADME, cell-free; conditions: read-out: Stability
[3] = Stability of the compound in rat plasma assessed as half life at 10 uM measured after 72 hrs by LC/MS analysis; format: ADME, cell-free
[4] = Stability of the compound in PBS buffer assessed as half life at 10 uM measured after 72 hrs by LC/MS analysis; format: physicochemical
[5] = test system: HEK-293T; assay: Antiproliferative activity against ACE-negative human HEK293T cells incubated for 48 hrs by MTT assay; format: functional, cell-based
[6] = test system: MDA-MB-231; assay: Antiproliferative activity against ACE-positive human MDA-MB-231 cells incubated for 48 hrs by MTT assay; format: functional, cell-based; conditions: MDA-MB-231, 48 h
[7] = test system: MDA-MB-468; assay: Antiproliferative activity against ACE-positive human MDA-MB-468 cells incubated for 48 hrs by MTT assay; format: functional, cell-based; conditions: MDA-MB-468, 48 h
[8] = test system: HEK-293T; assay: Antiproliferative activity against human HEK293T cells expressing ACE containing plasmid incubated for 48 hrs by MTT assay; format: functional, cell-based
[9] = Drug uptake in human MDA-MB-468 cells assessed as increase in PTX uptake rate at 10 to 20 uM measured after 2 hrs; format: ADME, cell-based; conditions: mda-mb-468, 2 h, dose 10-20 µM
[10] = test system: MDA-MB-231; assay: Induction of apoptosis in ACE-positive human MDA-MB-231 cells assessed as increase in apoptotic cells at 10 nM measured after 48 hrs by Annexin V-FITC/PI staining based fluorescence microscopy; format: functional, cell-based
[11] = test system: MDA-MB-468; assay: Induction of apoptosis in ACE-positive human MDA-MB-468 cells assessed as increase in apoptotic cells at 10 nM measured after 48 hrs by Annexin V-FITC/PI staining based fluorescence microscopy; format: functional, cell-based
[12] = Acute toxicity in BALB/c mouse assessed as rate of weight loss at 60 mg/kg, ip measured for 15 days; format: organism-based; conditions: in vivo, 360 h, time 15 day
[13] = Acute toxicity in BALB/c mouse assessed as rate of weight loss at 80 mg/kg, ip measured for 15 days; format: organism-based; conditions: in vivo, 360 h, time 15 day
[14] = Acute toxicity in BALB/c mouse assessed as rate of weight loss at 100 mg/kg, ip measured for 15 days; format: organism-based; conditions: in vivo, 360 h, time 15 day
[15] = Acute toxicity in BALB/c mouse assessed as survival at 60 mg/kg, ip measured for 15 days; format: organism-based; conditions: in vivo, 360 h, time 15 day
[16] = Acute toxicity in BALB/c mouse assessed as survival at 80 mg/kg, ip measured for 15 days; format: organism-based; conditions: in vivo, 360 h, time 15 day
[17] = Acute toxicity in BALB/c mouse assessed as survival at 100 mg/kg, ip measured for 15 days; format: organism-based; conditions: in vivo, 360 h, time 15 day
[18] = Drug uptake in BALB/c mouse xenografted with human […] cells assessed as PTX level in tumor at 17.6 micromol/kg, ip measured after 1 hr; format: ADME, organism-based, Neoplasm; conditions: in vivo, dose 17.6 µmol/kg
[19] = Drug uptake in BALB/c mouse xenografted with human […] cells assessed as PTX level in tumor at 17.6 micromol/kg, ip measured after 4 hrs; format: ADME, organism-based, Neoplasm; conditions: in vivo, dose 17.6 µmol/kg
[20] = Drug uptake in BALB/c mouse xenografted with human […] cells assessed as PTX level in liver at 17.6 micromol/kg, ip measured after 15 mins to 24 hrs; format: ADME, organism-based; conditions: in vivo, 0.25 h, dose 17.6 µmol/kg
[21] = Drug uptake in BALB/c mouse xenografted with human […] cells assessed as PTX level in kidney at 17.6 micromol/kg, ip measured after 15 mins to 24 hrs; format: ADME, organism-based; conditions: in vivo, 0.25 h, dose 17.6 µmol/kg
[22] = Drug uptake in BALB/c mouse xenografted with human […] cells assessed as PTX level in lung at 17.6 micromol/kg, ip measured after 15 mins to 24 hrs; format: ADME, organism-based; conditions: in vivo, 0.25 h, dose 17.6 µmol/kg
[23] = test system: MDA-MB-468; assay: Antitumor activity in human […] cells xenografted in Balb/c mouse assessed as reduction in tumor growth at 2.4 micromol/kg, ip measured after 4 days; format: functional, organism-based; conditions: dose 2.4 µmol/kg, time 4.0 day
[24] = test system: MDA-MB-468; assay: Antitumor activity in human […] cells xenografted in Balb/c mouse assessed as reduction in tumor growth at 2.4 micromol/kg, ip measured after 28 days relative to control; format: functional; parameters: scale not given: the % may be the effect or the level left; conditions: dose 2.4 µmol/kg, time 28 day
[25] = test system: MDA-MB-468; assay: Antitumor activity in human […] cells xenografted in Balb/c mouse assessed as reduction in tumor growth at 9.6 micromol/kg, ip measured after 28 days relative to control; format: functional; parameters: scale not given: the % may be the effect or the level left; conditions: dose 9.6 µmol/kg, time 28 day
[26] = test system: MDA-MB-468; assay: Antitumor activity in human […] cells xenografted in Balb/c mouse assessed as tumor weight at 2.4 micromol/kg, ip measured after 28 days (reference value: 0.43 g); format: functional; conditions: dose 2.4 µmol/kg, time 28 day
[27] = test system: MDA-MB-468; assay: Antitumor activity in human […] cells xenografted in Balb/c mouse assessed as tumor weight at 9.6 micromol/kg, ip measured after 28 days (reference value: 0.43 g); format: functional; conditions: dose 9.6 µmol/kg, time 28 day
[28] = test system: Mus musculus; assay: Toxicity in BALB/c mouse xenografted with human […] cells assessed as decrease in body weight at 2.4 micromol/kg, ip measured after 28 days relative to control; format: organism-based; parameters: scale not given: the % may be the effect or the level left; conditions: 672 h, at 2.4 µmol/kg, time 28 day
[29] = test system: Mus musculus; assay: Toxicity in BALB/c mouse xenografted with human […] cells assessed as decrease in body weight at 9.6 micromol/kg, ip measured after 28 days relative to control; format: organism-based; parameters: scale not given: the % may be the effect or the level left; conditions: 672 h, at 9.6 µmol/kg, time 28 day
[30] = test system: Mus musculus; assay: Toxicity in BALB/c mouse xenografted with human […] cells assessed as reduction in WBC count at 2.4 micromol/kg, ip measured after 28 days relative to control; format: organism-based; parameters: scale not given: the % may be the effect or the level left; conditions: 672 h, at 2.4 µmol/kg, time 28 day
[31] = test system: Mus musculus; assay: Toxicity in BALB/c mouse xenografted with human […] cells assessed as reduction in WBC count at 9.6 micromol/kg, ip measured after 28 days relative to control; format: organism-based; parameters: scale not given: the % may be the effect or the level left; conditions: 672 h, at 9.6 µmol/kg, time 28 day
[32] = test system: HEK-293T; assay: Potency index, ratio of PTX IC50 to test compound IC50 antiproliferative activity against ACE-negative human HEK293T cells incubated for 48 hrs by MTT assay; format: functional
[33] = test system: MDA-MB-231; assay: Potency index, ratio of PTX IC50 to test compound IC50 antiproliferative activity against ACE-positive human MDA-MB-231 cells incubated for 48 hrs by MTT assay; format: functional
[34] = test system: MDA-MB-468; assay: Potency index, ratio of PTX IC50 to test compound IC50 antiproliferative activity against ACE-positive human MDA-MB-468 cells incubated for 48 hrs by MTT assay; format: functional

With `CC[C@H](C)[C@H](NC(=O)[C@H](CCC(N)=O)NC(=O)[C@@H]1CCCN1C(=O)[C@H](CCCNC(=N)N)NC(=O)[C@@H]1CCCN1C(=O)[C@H](Cc1c[nH]c2ccccc12)NC(=O)[C@H](CCC(=O)O)NC(=O)CCC(=O)O[C@@H](C(=O)O[C@H]1C[C@@]2(O)[C@@H](OC(=O)c3ccccc3)[C@@H]3[C@]4(OC(C)=O)CO[C@@H]4C[C@H](O)[C@@]3(C)C(=O)[C@H](OC(C)=O)C(=C1C)C2(C)C)[C@@H](NC(=O)c1ccccc1)c1ccccc1)C(=O)N1CCC[C@H]1C(=O)N1CCC[C@H]1C(N)=O` ({Paclitaxel(2'-O-succinyl)}-EWPRPQIPP-NH2) the Kd [1] was 380 nM, the remaining at 48 h, 10 µM [2] was 0.169% and the half-life at 10 µM [3] was 5.82 h. It also gave a half-life at 10 µM [4] of 57.8 h, an IC50 [5] of 616 nM and an IC50 [6] of 9.5 nM. For the same compound, the IC50 [7] was 12.3 nM, the Activity [8] was “Active” and the Drug uptake [9] was “Active”. For the same compound, the Activity [10] was “Active”, the Activity [11] was “Active” and the Activity [12] was 1.9%. The Activity [13] was 4.5%, the Activity [14] was 7.2% and the Activity [15] was “Non-Toxic”. The Activity [16] was “Non-Toxic”, the Activity [17] was “Non-Toxic” and the Drug uptake [18] was 18067 ng/g. The Drug uptake [19] was 10458 ng/g, the Drug uptake [20] was “Active” and the Drug uptake [21] was “Active”. For the same compound, the Drug uptake [22] was “Active”, the Activity [23] was “inactive” and the Activity [24] was 54%. It also gave an Activity [25] of 62%, an Activity [26] of 0.2 g and an Activity [27] of 0.16 g. It also gave an Activity [28] of 2.8%, an Activity [29] of 6.4% and an Activity [30] of 17%. For the same compound, the Activity [31] was 22%, the “Ratio IC50” value [32] was 91.9 and the “Ratio IC50” value [33] was 3.1. The “Ratio IC50” value [34] was 4.1.
